# Experimental data: article PMC2211560 (PLoS Medicine, 2008)
# Several values for one entry are separate records, joined by “and”; a condition that tells them apart may be missing. Equal values may be shown once. Read-outs that look alike come from different tables or passages of the source.
# Assays:
# [1] = system: recurrent PTEN-deficient glioblastoma; assay: Clinical outcome: time-to-progression and radiographic response; format: in vivo, human; details: for TTP: interval between start of rapamycin and postoperative treatment failure, individual patients
# Source text: Figure 1 Clinical Trial Design Enrollment in the Phase I clinical trial was restricted to patients whose initial tumor resection (“surgery 1”) specimen was PTEN-deficient by immunohistochemistry. Patients were enrolled after failing standard therapy with radiation and chemotherapy (i.e., “tumor recurrence”).
# Patients were allowed two dose reductions.
# [2] = in vivo
# Protocol: Adverse events were evaluated according to the National Cancer Institute Common Toxicity Criteria, version 2 (http://ctep.info.nih.gov/reporting/index.html).
# The first three patients were enrolled at the initial dose level of 2 mg per day. After a four week evaluation period for dose limiting toxicity, a minimum of 3 more patients could be enrolled at the next dose level. […] Presurgical dosing included the loading dose followed by the daily maintenance dose until surgery. After the patient recovered from the effects of surgery, identical loading and maintenance doses (e.g., 6 mg and 2 mg, respectively) were administered. […] Assessment of drug safety was done following a routine schedule and supplemented by additional evaluation whenever a patient reported a new symptom. […] Toxicities were graded according to the National Cancer Institute Common Toxicity Criteria version 2.0. Treatments were held until recovery to ≤ grade 1 toxicity for ANC < 1000/µl, platelets < 80,000/ µl, grade 3 or grade 4 non-hematologic toxicities, and grade 4 hypercholesterolemia or hypertryglyceridemia. […] A 50 % dose reduction was made for ANC < 750/µl, platelets < 50,000/µl, or grade 4 non-hematological AE. Patients were allowed two dose reductions.
# [3] = system: PTEN-null cell lines; set-up: method as in PMID 11504908, PMID 11566616; details: PTEN-null cell lines in vitro; cited from earlier work
# [4] = human, in vivo, cited from earlier work
# [5] = cited from earlier work; for mucosal HERPES SIMPLEX infections, patients: phase III trial, with cyclosporine and corticosteroids, ref MacDonald et al, 2001
compound,measurement,setting,value
CO[C@H]1C[C@@H]2CC[C@@H](C)[C@@](O)(O2)C(=O)C(=O)N2CCCC[C@H]2C(=O)O[C@H]([C@H](C)C[C@@H]2CC[C@@H](O)[C@H](OC)C2)CC(=O)[C@H](C)/C=C(\C)[C@@H](O)[C@@H](OC)C(=O)[C@H](C)C[C@H](C)/C=C/C=C/C=C/1C [Rapamycin],TTP,[1]; 2 mg oral daily,62 days and 40 days and 70 days
same,TTP,[1]; 5 mg oral daily,194 days and 69 days and 144 days and 153 days and 42 days
same,TTP,[1]; 10 mg oral daily,39 days and 538 days and 98 days and 146 days and 99 days and 55 days
same,tumor regression by magnetic resonance imaging,"[1]; Patient 8, extended neoadjuvant course (25 d), 5 mg, prior to surgery",> 50%
same,duration of radiographically stable disease postoperatively,[1]; Patient 11,> 16 mo
same,time from starting rapamycin to death without evidence of tumor recurrence,"[1]; Patient 11, 10 mg",538 days
same,Radiographic Response to Rapamycin,"[1]; single-agent rapamycin, study patients",2/15
same,grade 3 or 4 toxicities,[2]; human,No grade 3 or 4 toxicities
same,"patients with grade 3 adverse events (hypokalemia, hypercholesterolemia, and cytopenias)",[2]; human,Five of 15
same,"patients with grade 3 adverse events (hypokalemia, hypercholesterolemia, and cytopenias)",[2],five
same,perioperative bleeding complications,[2],no perioperative bleeding complications
same,Rapamycin concentrations known to confer antiproliferative activity,[3],~1 nM
same,Vdss,[4]; iv,1.1 to 1.3 L/kg
same,half-life,[4],40 to 60 h
same,"ANEMIA, patients","[5]; human, in vivo",27-37%
same,ARTHRALGIA,"[5]; human, in vivo",25-31%
same,CONSTIPATION,"[5]; human, in vivo",28-36%
same,DIARRHEA,"[5]; human, in vivo",25-42%
same,DYSPEPSIA,"[5]; human, in vivo",17-25%
same,"DYSPNEA, patients","[5]; human, in vivo",22-30%
same,"EPISTAXIS, patients","[5]; human, in vivo",9%
same,"HEADACHE, patients","[5]; human, in vivo",23-34%
same,"HYPERTENSION, patients","[5]; human, in vivo",43-45%
same,"HYPOKALEMIA, patients","[5]; human, in vivo",11-21%
same,"HYPOPHOSPHATEMIA, patients","[5]; human, in vivo",15-23%
same,Hyperlipidemia,"[5]; human, in vivo",38-57%
same,NAUSEA,"[5]; human, in vivo",25-36%
same,Normalization of platelet counts after discontinuation,"[5]; human, in vivo",≤ 2 weeks
same,"Peripheral EDEMA, patients","[5]; human, in vivo",54-64%
same,Posttransplant lymphoproliferative disease (PTLD),"[5]; human, in vivo",0.8%
same,"THROMBOCYTOPENIA, patients","[5]; human, in vivo",13-30%
same,VOMITING,"[5]; human, in vivo",19-25%
same,"arthralgia, patients","[5]; human, in vivo",23%
same,hypercholesterolemia,"[5]; human, in vivo",38-46%
same,"insomnia, patients","[5]; human, in vivo",13-22%
same,patients with triglyceride levels exceeding 5 mmol/L,"[5]; human, in vivo",75%
same,total cholesterol mean peak,"[5]; human, in vivo",12 mmol/L
same,"tremor, patients","[5]; human, in vivo",21-31%
same,"mucosal HERPES SIMPLEX infections, patients",[5]; sirolimus 2 mg/day,10%
same,"mucosal HERPES SIMPLEX infections, patients",[5]; sirolimus 5 milligrams (mg)/day,19%
